Laboratory results: patent publication US9981983B2, “Thienopyranones as kinase inhibitors” (SignalRx Pharmaceuticals, Inc., priority 2008, dated 2018)
Like-named read-outs stand apart in the source and are kept apart here.

How the values were obtained:
Assay type in all cases: cell-based
[1] = system: pAKT serine 473 level in PC3 cells; assay: pAKT status in IGF-1 stimulated PC3 cells (Ser473 pAKT ELISA); conditions: Homo sapiens, PC-3; IGF-1 stimulated PC3 cells; read-out: PC3 pAKT IC50
Description: PC3 cells were obtained from the American Type Culture Collection (ATCC, Manassas, Va., Cat.# CRL-1435). Two million cells from the prostate cancer line PC3 were placed into 6 cm culture dishes and allowed to grow in complete RPMI 1640 media (Invitrogen, Carlsbad, Calif., Cat.#22400-105) with 10% fetal bovine serum (Invitrogen, Carlsbad, Calif., Cat.#10438-026). After this time period the cells were serum starved for 5 hours followed by application of the test compound. Test compound was added as a DMSO (dimethyl sulfoxide) solution such that the final DMSO concentration in the cell media was less than or equal to 0.2% by volume After 30 minutes of exposure the growth factor stimulant, human IGF-1 (PeproTech, Inc., Rocky Hill, N.J., Cat.#100-11), was added to a final concentration of 0.1 μg/ml in each well. After 30 minutes of IGF-1 exposure, cells were removed from the media and cell lysates were prepared using RIPA Lysis buffer (Upstate, Lake Placid, N.Y., Cat.#20-188), keeping on ice. The pAKT serine 473 level was measured in duplicate samples of the cell lysates using commercially available assays such as the Pathscan® Sandwich ELISA kit for Ser473 pAKT (Cell Signaling, Danvers, Mass., Cat.#7160). A SpectraMax Plus spectrophotometric plate reader (Molecular Devices, Sunnydale, Calif.) was used to measure the optical density signal for pAKT at 450 nm (OD450 nm). The pAKT OD450 nm readings were normalized by total protein amount in the cell lysates determined by standard methods.
Concentrations of test compounds required to inhibit IGF stimulated pAKT levels to 50% of maximum levels in PC3 cells (termed DM50 for decreased maximum 50%) were calculated by inputting the dose responses in the software package GraphPad Prism4 (GraphPad Software, Inc., San Diego, Calif.).
By these methods a number of compounds of the invention were evaluated and the concentration needed to reduce the detectable pAKT to 50% of the maximal uninhibited signal was calculated. These values (in μMolar units) are listed in Table 8 under the column heading PC3 pAKT IC50 (μMolar).

[2] = system: A549 (Lung); assay: Cell proliferation MTS assay, A549; conditions: Homo sapiens, 72 hours
Description: (§1) All cell lines were obtained from ATCC and cultured and plated according to ATCC recommendations. Cells were cultured in complete culture media containing 10% heat-inactivated fetal bovine serum (FBS, Mediatech, Inc.). For adherent cell lines, once cells reached 70% confluency, they were trypsinized and resuspended in phenol red free RPMI media (Mediatech, Inc.) plus 10% heat-inactivated FBS (assay buffer) and 100 μL aliquots were plated into each well of 96-well microtiter plates at a final density of 1,000-2,000 cells/well. Cells were incubated overnight at 37° C. in 5% CO2, and treated with test compounds on the next day. For suspension cell lines, cells were resuspended in assay buffer, plated into 96-well microtiter plates at a density of 10^4-10^5 cells/well/100 μL, and treatment was started on the same day. Cells were treated with vehicle (DMSO) and test compounds for 72 hours at concentration of 100, 70, 40, 20, 10, 5, 2.5, 1.25, 0.5 and 0.2 μM in four replicates at 37° C. in 5% CO2.

[3] = system: BXPC3 (Pancreas); assay: Cell proliferation MTS assay, BXPC3; conditions: Homo sapiens, BXPC-3, 72 hours
Description: as §1

[4] = system: HCT116 (Colon); assay: Cell proliferation MTS assay, HCT116; conditions: Homo sapiens, HCT-116, 72 hours
Description: as §1

[5] = system: OVCAR3 (Ovary); assay: Cell proliferation MTS assay, OVCAR3; conditions: Homo sapiens, OVCAR-3, 72 hours
Description: as §1

[6] = system: 786-O (Renal); assay: Cell proliferation MTS assay, 786-O; conditions: Homo sapiens, 786-0, 72 hours
Description: as §1

[7] = system: SKMEL2 (Melanoma); assay: Cell proliferation MTS assay, SKMEL2; conditions: Homo sapiens, SK-MEL-2, 72 hours
Description: as §1

[8] = system: RPM18226 (Myeloma); assay: Cell proliferation MTS assay, RPM18226; conditions: 72 hours
Description: as §1

[9] = system: HL60 (AML); assay: Cell proliferation MTS assay, HL60; conditions: Homo sapiens, HL-60, 72 hours
Description: as §1

[10] = system: K562 (CML); assay: Cell proliferation MTS assay, K562; conditions: Homo sapiens, 72 hours
Description: as §1

[11] = system: AKT Ser473 phosphorylation in renal cell carcinoma (786-O) Cell Line; assay: pAKT Ser473 ELISA in 786-O cells stimulated by Bv8, VEGF, IGF; conditions: Homo sapiens, 786-0, 786-O, read-out: Concentration Required to Inhibit pAKT to Half-maximal Levels
Description: This was followed by the addition of IGF, VEGF and Bv8 to 0.1 μg/mL, 0.1 μg/mL and 2.5 μg/mL respectively for another 30 minutes before harvesting the cells and making cell lysates with RIPA buffer keeping on ice, pAKT levels were measured in duplicate samples with Cell Signaling's Ser473 pAKT ELISA kit. Optical density plate readings of pAKT levels were made at 450 nm (OD450 nm) and were normalized by total protein amount of the cell lysates. The dose of compound at which pAKT levels are reduced to 50% of the non-treatment level was calculated using GraphPad Prism4 software and is listed in Tables 4 and 5 below.

[12] = system: MCF7 breast cancer cells; assay: Mammosphere cancer stem cell inhibition assay; conditions: first experiment; for number of mammospheres: control 38±4
Description: A mammosphere cancer stem cell inhibition assay was set up using literature methods (T. M. Phillips et al. J. Natl. Cancer I. 2006, 98, 1777-1785, “Mammalian target of rapamycin contributes to the acquired apoptotic resistance of human mesothelioma multicellular spheroids”) using a subset of MCF7 breast cancer cells that posses the ability to evade anchorage independent apoptosis. Commercially available MCF7 breast cancer cells were cultured in MEM supplemented with 0.01 mg/mL of bovine insulin and 10% FBS at 37° C. in humidified atmosphere (5% CO2). Floating cells in the 2-day cultures were collected, washed, and resuspended in DMEM-F12 (50:50) supplemented with 0.4% BSA, 5 μg/mL bovine insulin, 20 ng/mL bFGF, and 10 ng/mL EGF. Cells were then passed through a […] sieve to remove any cell clusters and adjusted to a density of 10,000 cells/mL. Approximately 500 cells were plated in quadruplicate in a sterile poly-HEMA-treated 96-well plate. Cells were then treated with either control or test solutions consisting of the kinase inhibitor Lapatinib (1 μM), Cpd 28 (1 or 10 μM), Cpd 55 (1 or 10 μM), The numbers of mammospheres (clusters of cells numbering more than 4 or 5 per cluster) were then counted after 5-7 days.

IC50 [1]: 161 to 440 nM
IC50 [2]: 2540 nM
IC50 [3]: 3350 nM
IC50 [4]: 2200 nM
IC50 [5]: 1240 nM
IC50 [6]: 2820 nM
IC50 [7]: 5200 nM
IC50 [8]: 730 nM
IC50 [9]: 3060 nM
IC50 [10]: 3200 nM
IC50 ([11]; stimulant Bv8): 380 nM
IC50 ([11]; stimulant IGF): 2600 nM
IC50 ([11]; stimulant PBS): 541 nM
IC50 ([11]; stimulant VEGF): 343 nM
Compound: O=c1cc(N2CCOCC2)oc2c(-c3ccc4c(c3)OCCO4)csc12 [Compound 28, 3-(2,3-dihydrobenzo[b][1,4]dioxin-6-yl)-5-morpholino-7H-thieno[3,2-b]pyran-7-one]
inhibition of mammosphere production versus control ([12]; 1 μM): approximately 60%
number of mammospheres ([12]; 1 μM): 15±2 mammospheres
inhibition of mammosphere production versus control ([12]; 10 μM): approximately 88%
number of mammospheres ([12]; 10 μM): 5±1 mammospheres
